Reference: patent US20150266864A1, “HETEROAROMATIC COMPOUNDS, METHOD FOR PREPARING THE COMPOUNDS, PHARMACEUTICAL COMPOSITIONS, USES AND METHOD FOR TREATING ACUTE AND CHRONIC PAIN” (CRISTÁLIA PRODUTOS QUÍMICOS FARMACÊUTICOS LTDA, priority 2012, published 2015)
Structures can show the parent of a compound that is named as a salt.

Experiments:
rats subjected to SNL [1] = assay: Spinal nerve ligation (SNL) L5 model, mechanical allodynia (digital Von Frey); format: in vivo, rat; details: after 7 days of treatment, 32.25 μmol/kg ip
Method: (§1) This experimental model was proposed by Kim and Chung [Kim, S. H.; Chung, J. M. Pain 1992, 50: 355-363] and consists of ligation of spinal nerves. Male Wistar rats, 180-220 g, were anesthetized with a mixture of ketamine and xylazine (60 mg/kg and 5 mg/kg, respectively) intraperitoneally. After the dorsal region asepsy, an incision was made between L5 and S1. The L6 transverse process was removed for locating the nerves L4 and L5, which were carefully isolated, and tight ligation of the L5 nerve with 6.0 silk thread was made, interrupting flow of the axon of the nerve. After this procedure, para-spinal muscles and skin were sutured, and then a topical antiseptic was applied. False operated animals (sham) were subjected to the same procedure, however the spinal nerve was not ligated.
To evaluate the development of mechanical allodynia, digital analgesimeter (Model EFF301; Insight Equipments), digitalized version coupled to a pointed filament (Von Frey model variant) was used. This test aims to assess changes in tactile sensitivity in response to a mechanical stimulus as a result of a neural damage. The device consisted of a hand-held force transducer fitted with a sensor tip, through which a pressure with increasing strength is applied against the footpad of the animals hindpaw to assess the threshold of paw withdrawal, that is, the digital analgesimeter records the maximal strength, in grams (g), in which the animal withstands until the paw withdrawal reflex.
Animals were placed in individual acrylic boxes and let to acclimate for 30 min before the beginning of the test. After this period, the thresholds of hindpaw withdrawal were determinded. For each hindpaw, five records of the withdrawal thresholds were made, and the average for each hindpaw was defined as the paw withdrawal threshold control.
(§2) The treatment started on the 7th day after surgery. Compounds were diluted in water or DMSO and administered through intraperitoneal route on daily basis, during 7 days, at a dose of […]. The effectiveness of tested compounds was assessed on days 1, 3, and 7 days after treatment, always before the next administration of the compound. Latencies were also assessed on days 1, 3, and 7 after treatment interruption.
(§3) Differences were considered significant when p<0.05.

Swiss-type male mice = assay: RotaRod performance test, motor coordination
Method: The assessment of motor coordination in mice, by the rotarod performance test, was carried out to detect any possible sedative or muscle relaxant effect caused by the compounds of the present invention, previously tested in acute and neuropathic pain models. This test was carried out according to the method of described by Dunham & Miya and animal motor coordination was evaluated using RotaRod apparatus [Dunham M. S. & Miya. R. T. (1957). J. Amer. Pharmac. Assoc. Sci. Edit. 1957, 46, 208-209].
The RotaRod apparatus (Model 412 EFF, Insight Equipements, Brazil) is a device that measures motor coordination and thus evaluates balance alterations in mice. The apparatus consists of an acrylic box splited into four compartments with a rotational cylinder among them. The cylinder rotates at constant speed driven by a motor and regulated to the constant speed mode of 5-37 revolutions per minute (rpm). In this study the speed was set up to 9 rpm.
To remain on the rotational cylinder, the animal needs to move around, so that the motor coordination can be quantified. The four compartments have drop detection system, through the impact, a microprocessor circuit, for timing the permanence of the animal at the compartment, and for counting the number of falls.
The day before the test, Swiss-type male mice (19-25 g) were placed on the rotational cylinder, set up to the constant speed mode of 9 rpm for adaptation and learning. A group of 10 mice were used for each tested compound, and the total period spent on the rotational cylinder (in seconds) was recorded for a period of 180 seconds (cut off time) and it was accept a maximum of three falls for each animal. Motor coordination was assessed at times 0 (before treatment), 15, 30, 60 and 120 minutes after compounds administration at a dose of 32.25 μmol/kg.
All compounds were administered intraperitoneally (ip).
The Student's t-test was also used to compare means between two experimental groups. Differences were considered significant when p<0.05.

[2] = system: rats subjected to sciatic nerve CCI; assay: Chronic constrictive injury (CCI) of the sciatic nerve, thermal hyperalgesia, paw withdrawal test; format: in vivo, rat
Method: The chronic constrictive injury (CCI) was induced by sciatic nerve ligation according to the method described by Bennett and Xie [Bennett. G. J.; Xie, Y. K. Pain […], 33: 87-107]. Male Wistar rats, weighing 180-240 g, were anesthetized with a mixture of ketamine and xylazine (60 mg/kg and 5 mg/kg, respectively), intraperitoneally. Through an incision of 0.5 cm (parallel and spaced about 10 mm from the left femur) the sciatic nerve was identified. With a thin glass rod, a small segment of sciatic nerve was exposed and four loosely ligatures were placed around the sciatic nerve spaced 1 mm each other using a 3-0 silk suture thread. After the procedure, the skin was sutured and a topical antiseptic was applied.
To assess animal behavior in response to hyperalgesic phenomenon resulting from sciatic nerve chronic constrictive injury, the model described by Hargreaves and Dubner was used [Hargreaves K., Dubner R., Brown F., Flores C., Joris J. Pain 1988, 32 (1): 77-88]. In this regard, paw withdrawal in response to a painful phenomenon was performed. This is a nociceptive test which involves a peripheral short thermal stimulus induced by the radiant heat of an incandescent lamp bulb. […] Radiant heat has an advantage over the other modes of thermal stimulation in that it produces no tactile stimulus. [Le Bars D., Gozariu M., Cadden S. W. Pharmacology Reviews, 2001, 53 (4), 597-652]. In this assay, a plantar test analgesimeter (ITC Life Science Inc, USA) was used.
Animals were placed in transparent acrylic boxes with tempered glass pane floor for 40 minutes to acclimate. After this period, the radiant heat was applied to the footpads of animals's hindpaws until they make the movement of paw withdrawal. The paw withdrawal latency was defined as the time recorded from the beginning of the radiant heat stimulus and the paw withdrawal. For each paw, three latency records were made, and the average value was used to define the paw withdrawal time control The maximum time that each animal was exposed to the radiant heat source (cut-off) was defined as three times the paw withdrawal time control, to avoid tissue injuries in animals's paws.
The day before surgery, rats, defined as “control before surgery”, were placed in acrylic boxes to the paw withdrawal test. On the 7th day after the surgery (CCI), the paw withdrawal test was again performed in order to verify neuropathic pain has been effectively developed in the left paw—defined as “post-surgery control.”
The paw withdrawal test was assessed during the days 1, 3, and 7 of the treatment (with amitriptyline hydrochloride or the compounds of examples of the instant invention) and on days 1, 3, and 7 after treatment interruption.
as §3

rats subjected to SNL [3] = assay: Spinal nerve ligation (SNL) L5 model, thermal hyperalgesia; format: in vivo, rat
Method: as §1
This method aims to evaluate the animal behavior in response to hyperalgesic phenomenon resulting from the injury induced by the ligament of spinal nerve (L5). In this regard, paw withdrawal in response to thermal stimulus was used, and the thermal stimulus was induced by the radiant heat of an incandescent lamp bulb. The paw withdrawal test was performed as described for the assessment of thermal hyperalgesia in the sciatic nerve chronic constrictive injury model.
as §3, §2

[4] = male, Swiss, mouse, in vivo, 30 min
[5] = male, Swiss, mouse, in vivo, 60 min
[6] = male, Swiss, mouse, in vivo, 120 min
[7] = after 7 days of 32.25 μmol/kg ip
[8] = first day of treatment, 32.25 μmol/kg ip

CN(C)CCC=C1c2ccccc2CCc2ccccc21 [amitriptyline hydrochloride, reference compound]
paw withdrawal threshold, mechanical allodynia (rats subjected to SNL [1]): no significant threshold increase | Mice residence time on the rotational cylinder (Swiss-type male mice; [4]): 151.0 s | Mice residence time on the rotational cylinder (Swiss-type male mice; [5]): 175.8 s | Mice residence time on the rotational cylinder (Swiss-type male mice; [6]): 161.8 s | antinociceptive effect after treatment interruption [2, 7]: the antinociceptive effect was observed only after the first day | paw withdrawal latency ([2]; day 7 of treatment, 32.25 μmol/kg ip daily, p<0.005): significantly increased | effect on thermal hyperalgesia after treatment interruption (rats subjected to SNL [3]; [7]): the analgesic effect is not maintained | paw withdrawal latency, thermal hyperalgesia (rats subjected to SNL [3]; after 7 days of treatment, 32.25 μmol/kg ip): significantly increased

CC(=O)O.Fc1ccc(-c2ncncc2CCN2CCCCC2)cc1 [C6, 1-{2-[4-(4-fluorophenyl)pyrimidin-5-yl]ethyl}piperidinium acetate with 0.8 water molecules]
antinociceptive effect, paw withdrawal latency vs post-surgery control [2, 8]: antinociceptive effects in the first day of treatment

CCN1CCN(CCc2c[nH]nc2-c2ccc(F)cc2)CC1.Cl.Cl.Cl.O.O.O (hydrate or solvate) [C12, 1-ethyl-4-{2-[3-(4-fluorophenyl)-1H-pyrazol-4-yl]ethyl}piperazine trihydrochloride trihydrate]
melting point: 226 to 237 °C (dec.)

CCOC(=O)C1(c2ccccc2)CCN(CCc2c[nH]nc2-c2ccc(F)cc2)CC1 [C18, Ethyl 1-{2-[3-(4-fluorophenyl)-1H-pyrazol-4-yl]ethyl}-4-phenylpiperidine-4-carboxylate]
antinociceptive effect, paw withdrawal latency vs post-surgery control [2, 8]: antinociceptive effects in the first day of treatment | melting point: 138 to 139.5 °C

CC(=O)O.OC1(c2ccc(Cl)cc2)CCN(CCc2cncnc2-c2ccc(F)cc2)CC1 [C16, 4-(4-chlorophenyl)-4-hydroxy-1-{2-[4-(4-fluorophenyl)pyrimidin-5-yl]ethyl}piperidinium acetate]
animal residence time on the rotational cylinder compared to controls (Swiss-type male mice; 15 minutes after administration, 32.25 μmol/kg): equal to the time observed for the negative control, and significantly higher than the time observed for the control amitriptyline hydrochloride | Mice residence time on the rotational cylinder (Swiss-type male mice; T 15 min after ip administration, 32.25 μmol/kg, 9 rpm, cut off 180 s, mean ± SEM): 178.6 s | Mice residence time on the rotational cylinder (Swiss-type male mice; T 30 min after ip administration, 32.25 μmol/kg (diazepam 2 mg/kg), 9 rpm, cut off 180 s, mean ± SEM): 178.8 s | Mice residence time on the rotational cylinder (Swiss-type male mice; T 60 min after ip administration, 32.25 μmol/kg (diazepam 2 mg/kg), 9 rpm, cut off 180 s, mean ± SEM): 150.8 s | Mice residence time on the rotational cylinder (Swiss-type male mice; T 120 min after ip administration, 32.25 μmol/kg (diazepam 2 mg/kg), 9 rpm, cut off 180 s, mean ± SEM): 126.3 s | antinociceptive effect, paw withdrawal latency vs post-surgery control [2, 8]: antinociceptive effects in the first day of treatment | latency increase, statistical significance ([2]; first day of treatment, 32.25 μmol/kg ip, p<0.05 or p<0.005): the latency increase was statistically significant

Cl.Cl.Fc1ccc(-c2n[nH]cc2CCN2CCCCC2)cc1.O (hydrate or solvate) [C3, 1-{2-[3-(4-fluorophenyl)-1H-pyrazol-4-yl]ethyl}piperidine dihydrochloride monohydrate]
melting point: 277 to 279 °C

Cl.Fc1ccc(-c2nocc2CCN2CCCCC2)cc1 [C5, 1-{2-[3-(4-fluorophenyl)-1,2-oxazol-4-yl]ethyl}piperidine hydrochloride]
Mice residence time on the rotational cylinder (Swiss-type male mice; [4]): 178.6 s | Mice residence time on the rotational cylinder (Swiss-type male mice; [5]): 173.4 s | Mice residence time on the rotational cylinder (Swiss-type male mice; [6]): 179.2 s | Mice residence time on the rotational cylinder (Swiss-type male mice; male, Swiss, mouse, in vivo, ip, 15 min): 180.0 s | antinociceptive effect, paw withdrawal latency vs post-surgery control [2, 8]: antinociceptive effects in the first day of treatment

Fc1ccc(-c2n[nH]cc2CCN2CCCCC2)cc1 [C1, 1-{2-[3-(4-fluorophenyl)-1H-pyrazol-4-yl]ethyl}piperidine]
melting point: 145 to 146 °C

Cl.Cl.Fc1ccc(-c2n[nH]cc2CCN2CCOCC2)cc1.O (hydrate or solvate) [C9, 4-{2-[3-(4-fluorophenyl)-1H-pyrazol-4-yl]ethyl}morpholine dihydrochloride monohydrate]
melting point: 113 to 126 °C (dec.)
